This note sets out measurements from patent US10913727B2, “Modulators of the integrated stress pathway” (Calico Life Sciences LLC, priority 2016, dated 2021).

This test has as its system HEK293T cells carrying the ATF4 luciferase reporter. The test is described as follows: ATF4-Luc assay, in vitro model of Vanishing Cell White Matter Disease (VWMD). Type of test: cell-based. The note with it: Homo sapiens, HEK-293T, 1 μg/mL tunicamycin, 7 hours, One Glo luminescence. Put shortly:
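Stable HEK293T line with human ATF4 5′-UTR–firefly luciferase reporter treated with 1 μg/mL tunicamycin plus 200 nM compound for 7 h. Luminescence read; EC50 derived.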
One may read the EC50 as the concentration needed to bring the measured effect to its halfway point. For `Cn1nc(C(=O)NC23CC(NC(=O)COc4ccc(Cl)c(F)c4)(C2)C3)cc1C(F)(F)F` [Compound 789, N-{3-[2-(4-chloro-3-fluorophenoxy)acetamido]bicyclo[1.1.1]pentan-1-yl}-1-methyl-5-(trifluoromethyl)-1H-pyrazole-3-carboxamide], the EC50 is 50 to 250 nM.

Take `O=C(COc1ccc(Cl)c(F)c1)NC12CC(NC(=O)c3ccc4nccn4c3)(C1)C2` [Compound 811, N-{3-[2-(4-chloro-3-fluorophenoxy)acetamido]bicyclo[1.1.1]pentan-1-yl}imidazo[1,2-a]pyridine-6-carboxamide]: the EC50 is above 2000 nM.

Turning to `O=C(COc1ccc(Cl)c(F)c1)NC12CC(NC(=O)c3cc(N4CC(F)(F)C4)ccn3)(C1)C2` [Compound 189, N-{3-[2-(4-chloro-3-fluorophenoxy)acetamido]bicyclo[1.1.1]pentan-1-yl}-4-(3,3-difluoroazetidin-1-yl)pyridine-2-carboxamide], the EC50 fell in the range of 250 to 1000 nM.

As to `Cc1cc(C(=O)NC23CCC(NC(=O)COc4ccc(Cl)c(F)c4)(CC2)C[C@@H]3O)n(C)n1` [Compound 506, N-{(2S)-4-[2-(4-chloro-3-fluorophenoxy)acetamido]-2-hydroxybicyclo[2.2.2]octan-1-yl}-1,3-dimethyl-1H-pyrazole-5-carboxamide], the EC50 lay in the range of 50 to 250 nM.

In the case of `Cc1cccc(C(=O)NC23CC(NC(=O)COc4ccc(Cl)c(F)c4)(C2)C3)c1` [Compound 535, N-{3-[2-(4-chloro-3-fluorophenoxy)acetamido]bicyclo[1.1.1]pentan-1-yl}-3-methylbenzamide], the EC50 lay within 50 to 250 nM.

For `Cc1cnc(C(=O)NC23CCC(NC(=O)COc4ccc(Cl)c(F)c4)(CC2)C(O)C3)c(C)n1` (centres unmarked) [Compound 286, N-{4-[2-(4-chloro-3-fluorophenoxy)acetamido]-3-hydroxybicyclo[2.2.2]octan-1-yl}-3,5-dimethylpyrazine-2-carboxamide], the EC50 fell in the range of 250 to 1000 nM.

With `O=C(COc1ccc(Cl)c(F)c1)NC12CC(NC(=O)c3cnc4ncccc4n3)(C1)C2` [Compound 864, N-{3-[2-(4-chloro-3-fluorophenoxy)acetamido]bicyclo[1.1.1]pentan-1-yl}pyrido[2,3-b]pyrazine-2-carboxamide], the EC50 is above 2000 nM.

As for `O=C(COc1ccc(Cl)c(F)c1)NC12CC(NC(=O)c3ccn4nccc4n3)(C1)C2` [Compound 631, N-{3-[2-(4-chloro-3-fluorophenoxy)acetamido]bicyclo[1.1.1]pentan-1-yl}pyrazolo[1,5-a]pyrimidine-5-carboxamide], the EC50 fell in the range of 50 to 250 nM.

Take `Cc1nc2ccc(C(=O)NC34CC(NC(=O)COc5ccc(Cl)c(F)c5)(C3)C4)cc2s1` [Compound 774, N-{3-[2-(4-chloro-3-fluorophenoxy)acetamido]bicyclo[1.1.1]pentan-1-yl}-2-methyl-1,3-benzothiazole-6-carboxamide]: the EC50 is above 2000 nM.

In the case of `N#Cc1cccc(C(=O)NC23CC(NC(=O)COc4ccc(Cl)c(F)c4)(C2)C3)c1` [Compound 366, N-{3-[2-(4-chloro-3-fluorophenoxy)acetamido]bicyclo[1.1.1]pentan-1-yl}-3-cyanobenzamide], the EC50 was in the range of 50 to 250 nM.

Regarding `Cc1cc2c(C(=O)NC34CC(NC(=O)COc5ccc(Cl)c(Cl)c5)(C3)C4)nccn2n1` [Compound 562, N-{3-[2-(3,4-dichlorophenoxy)acetamido]bicyclo[1.1.1]pentan-1-yl}-2-methylpyrazolo[1,5-a]pyrazine-4-carboxamide], the EC50 lay within 250 to 1000 nM.

For `Cn1nccc1C(=O)NC12CCC(NC(=O)COc3ccc(Cl)c(F)c3)(CC1)C(O)C2` (centres unmarked) [Compound 602, N-{4-[2-(4-chloro-3-fluorophenoxy)acetamido]-3-hydroxybicyclo[2.2.2]octan-1-yl}-1-methyl-1H-pyrazole-5-carboxamide], the EC50 lay in the range of 250 to 1000 nM.

On to `Cc1nc(C(F)(F)F)c(C(=O)NC23CC(NC(=O)COc4ccc(Cl)c(F)c4)(C2)C3)s1` [Compound 837, N-{3-[2-(4-chloro-3-fluorophenoxy)acetamido]bicyclo[1.1.1]pentan-1-yl}-2-methyl-4-(trifluoromethyl)-1,3-thiazole-5-carboxamide], for which the EC50 was above 2000 nM.

Consider `COc1cnc(C(=O)NC23CC(NC(=O)COc4ccc(Cl)c(F)c4)(C2)C3)cn1` [Compound 124, N-{3-[2-(4-chloro-3-fluorophenoxy)acetamido]bicyclo[1.1.1]pentan-1-yl}-5-methoxypyrazine-2-carboxamide], for which the EC50 lay in the range of 1000 to 2000 nM.

`COc1ccsc1C(=O)NC12CC(NC(=O)COc3ccc(Cl)c(F)c3)(C1)C2` [Compound 548, N-{3-[2-(4-chloro-3-fluorophenoxy)acetamido]bicyclo[1.1.1]pentan-1-yl}-3-methoxythiophene-2-carboxamide]: the EC50 is above 2000 nM.

With `O=C(COc1ccc(Cl)c(F)c1)NC12CC(NC(=O)c3ccccc3F)(C1)C2` [Compound 507, N-{3-[2-(4-chloro-3-fluorophenoxy)acetamido]bicyclo[1.1.1]pentan-1-yl}-2-fluorobenzamide], the EC50 was 250 to 1000 nM.

As for `O=C(COc1ccc(Cl)c(F)c1)NC12CC(Nc3cccc(-c4ccc(Cl)cc4)n3)(C1)C2` [Compound 398, 2-(4-chloro-3-fluorophenoxy)-N-(3-{[6-(4-chlorophenyl)pyridin-2-yl]amino}bicyclo[1.1.1]pentan-1-yl)acetamide], the EC50 was above 2000 nM.

As for `N#CCCc1ccc(C(=O)NC23CCC(NC(=O)COc4ccc(Cl)c(F)c4)(C2)C3)nc1` [Compound 336, N-{4-[2-(4-chloro-3-fluorophenoxy)acetamido]bicyclo[2.1.1]hexan-1-yl}-5-(2-cyanoethyl)pyridine-2-carboxamide], the EC50 is above 2000 nM.

Consider `COCc1ccc(C(=O)NC23CC(NC(=O)COc4ccc(Cl)c(F)c4)(C2)C3)o1` [Compound 242, N-{3-[2-(4-chloro-3-fluorophenoxy)acetamido]bicyclo[1.1.1]pentan-1-yl}-5-(methoxymethyl)furan-2-carboxamide], for which the EC50 fell in the range of 50 to 250 nM.

As to `Cc1c(Cl)c(C(=O)NC23CC(NC(=O)COc4ccc(Cl)c(F)c4)(C2)C3)nn1C` [Compound 780, 4-chloro-N-{3-[2-(4-chloro-3-fluorophenoxy)acetamido]bicyclo[1.1.1]pentan-1-yl}-1,5-dimethyl-1H-pyrazole-3-carboxamide], the EC50 is above 2000 nM.

Consider `O=C(COc1ccc(Cl)c(F)c1)NC12CCC(NC(=O)c3ccccn3)(CC1)C[C@@H]2O` [Compound 727, N-{(3S)-4-[2-(4-chloro-3-fluorophenoxy)acetamido]-3-hydroxybicyclo[2.2.2]octan-1-yl}pyridine-2-carboxamide], for which the EC50 is below 50 nM.

For the compound `O=C(COc1ccc(Cl)c(F)c1)NC12CC(NC(=O)c3ccc4snnc4c3)(C1)C2` [Compound 800, N-{3-[2-(4-chloro-3-fluorophenoxy)acetamido]bicyclo[1.1.1]pentan-1-yl}-1,2,3-benzothiadiazole-5-carboxamide], the EC50 was above 2000 nM.

As for `O=C(CCCc1cccc(Cl)c1)NC12CC(NC(=O)c3cnc(C(F)F)cn3)(C1)C2` [Compound 946, N-{3-[4-(3-chlorophenyl)butanamido]bicyclo[1.1.1]pentan-1-yl}-5-(difluoromethyl)pyrazine-2-carboxamide], the EC50 was above 2000 nM.
